Results from US20110312877A1, “ENGINEERED TUNABLE NANOPARTICLES FOR DELIVERY OF THERAPEUTICS, DIAGNOSTICS, AND EXPERIMENTAL COMPOUNDS AND RELATED COMPOSITIONS FOR THERAPEUTIC USE” (APARNA BIOSCEIENCES, priority 2008, published 2011).
Where no end group is shown, it is not given here.

Test system: HRP-labeled IgG
Experiment: PEI-PEG-Peptide antibody binding and free peptide competition (ELISA)
Details: peptide 0 added after antibody, lowering competition (FIG. 1C)
Method: PPP0 (Pei-PEG-Peptide0) was diluted into the coating buffer (1×TBS, pH7.2) (final concentration: 30 μg/ml) and immediately coated 96-well microplate with 100 µl per well of the diluted PPP0 solution. The plates were sealed and incubated overnight at room temperature.
Wells were aspirated and washed with 300 µl of washing buffer (1×TBS containing 0.1% Tween 20, pH 7.4). The procedure was repeated two more times for a total of three washes
In the next step plates were blocked by adding 300 µl 1% BSA in TBS and incubating for two hours.
[…] Next, 50 µl of HRP-labeled IgG (˜3 ug/ml in binding buffer) was added to each of the wells. The plate was shaken on a horizontal microplate shaker at 500±50 rpm for 10 rain and then incubate at 37° C. for 2 hours. After incubation, wells were washed 5 times with washing buffer to remove the competitors and HRP-IgG.
150 µl per well of freshly prepared substrate solution was added and incubated for 25-30 min at room temperature. The reaction was stopped by adding 70 µl of 2NH2SO4 into each well. Plate was gently tapped to ensure a thorough mixing. Optical density of each well was measured immediately, using a microplate reader set to 450 nm. Data was analyzed GraphPad Prism software.

off-rate for antibody dissociation from PPP: long
Substance: PPP: Fc binding peptide (HWRGWVC)-PEG-PEI conjugate made with SCM-PEG-Mal (3400) and PEI 2K (also: conjugated to PEG(3400)-PEI 2K via SCM-PEG-Mal, site not given here)
